Here are results for 19 molecules from patent publication US8680159B2, “Bradykinin 1 receptor modulating compounds” (Gruenenthal GmbH, priority 2010, dated 2014).

In test [1] the target is T1, human B1R receptor (CHO K1 cells stably transfected with the human B1R gene) (Homo sapiens, UniProt P46663).
T1 construct: expressed in transfected cells; host or cells: CHO K1 cells (Chinese hamster ovary), stably transfected
T1 sequence (P46663 1-353): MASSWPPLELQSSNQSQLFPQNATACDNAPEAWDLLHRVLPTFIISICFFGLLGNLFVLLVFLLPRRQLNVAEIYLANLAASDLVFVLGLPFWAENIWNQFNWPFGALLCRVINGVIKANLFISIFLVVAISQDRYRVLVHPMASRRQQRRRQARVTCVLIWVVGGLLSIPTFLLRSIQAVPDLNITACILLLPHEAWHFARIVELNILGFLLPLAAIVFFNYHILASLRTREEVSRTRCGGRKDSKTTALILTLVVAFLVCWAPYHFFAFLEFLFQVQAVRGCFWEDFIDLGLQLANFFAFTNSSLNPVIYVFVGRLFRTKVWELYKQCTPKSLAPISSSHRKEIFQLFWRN
In words: Functional study on the bradykinin receptor 1 (B1R), Ca2+ fluorescence (Fluo-4) FLIPR/Novostar assay, hB1R cells. The class given is cell-based. The following applies: CHO-K1, read-out: % inhibition (human B1R) at 10 μM. A digest of the protocol:
(§1)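 Stably transfected CHO K1 cells carrying human or rat B1R were Fluo-4 loaded and Ca2+ fluorescence read by FLIPR or Novostar. Compounds were added first at 10 μM for % activation, then the EC80 agonist was applied after 6-20 min (human: Lys-Des-Arg9-bradykinin; rat: Des-Arg9-bradykinin). % inhibition is relative to maximum achievable inhibition, and IC50 comes from concentration series.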

The target in test [2] is T2, B1R receptor of the rat (CHO K1 cells stably transfected with the B1R gene of the rat) (Rattus norvegicus, UniProt P97583).
T2 construct: expressed in transfected cells; host or cells: CHO K1 cells (Chinese hamster ovary), stably transfected
T2 sequence (P97583 1-337): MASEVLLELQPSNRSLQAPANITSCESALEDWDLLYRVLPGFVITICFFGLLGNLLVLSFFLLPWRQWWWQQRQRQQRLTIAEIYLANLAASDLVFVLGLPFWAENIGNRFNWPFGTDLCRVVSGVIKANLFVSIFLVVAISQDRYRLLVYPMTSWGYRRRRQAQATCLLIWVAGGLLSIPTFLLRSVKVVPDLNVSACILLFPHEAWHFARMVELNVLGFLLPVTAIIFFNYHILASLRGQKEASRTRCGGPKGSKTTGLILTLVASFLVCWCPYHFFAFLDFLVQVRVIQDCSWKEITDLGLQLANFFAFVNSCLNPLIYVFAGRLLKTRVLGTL
The test is described as follows: Functional study on the bradykinin receptor 1 (B1R), Ca2+ fluorescence (Fluo-4) FLIPR/Novostar assay, rB1R cells. It is filed as cell-based. The following applies: CHO-K1, 10 μM, read-out: % inhibition (rat B1R) at 10 μM. A digest of the protocol: as §1

One may read the inhibition as the drop in the measured response relative to a control, in per cent.

`Cc1cc(N2CCC(N(C)C(=O)c3ccc4c(c3)[C@H](NC(=O)c3cccc(C(F)(F)F)c3Cl)CC4)CC2)nc(C)n1` [Example H-135, (3R)-3-[[2-Chloro-3-(trifluoromethyl)-benzoyl]amino]-N-[1-(2,6-dimethyl-pyrimidin-4-yl)-piperidin-4-yl]-N-methyl-2,3-dihydro-1H-indene-5-carboxylic acid amide]: the inhibition at 10 µM came out at 99% in test [1] and 106% in test [2].

Regarding `CN(CC1CCN(c2ccncn2)CC1)C(=O)c1ccc2c(c1)[C@H](NC(=O)c1ccccc1Cl)CC2` [Example H-136, (3R)-3-[(2-Chloro-benzoyl)amino]-N-methy-N-[(1-pyrimidin-4-yl-piperidin-4-yl)-methyl]-2,3-dihydro-1H-indene-5-carboxylic acid amide], the inhibition at 10 µM in test [1] was 41%; in test [2] it was 107%.

In the case of `Cc1cc(N2CCC(N(C)C(=O)c3ccc4c(c3)[C@H](NC(=O)c3cc(C(F)(F)F)ccc3Cl)CC4)CC2)nc(C)n1` [Example H-137, (3R)-3-[[2-Chloro-5-(trifluoromethyl)-benzoyl]amino]-N-[1-(2,6-dimethyl-pyrimidin-4-yl)-piperidin-4-yl]-N-methyl-2,3-dihydro-1H-indene-5-carboxylic acid amide], the inhibition at 10 µM was 99% in test [1] and 109% in test [2].

Consider `CN1CCN(C(=O)CN2CCC(N(C)C(=O)c3ccc4c(c3)[C@H](NC(=O)c3ccccc3Cl)CC4)CC2)CC1` [Example H-138, (3R)-3-[(2-Chloro-benzoyl)amino]-N-methyl-N-[1-[2-(4-methyl-piperazin-l-yl)-2-oxo-ethyl]-piperidin-4-yl]-2,3-dihydro-1H-indene-5-carboxylic acid amide], for which the results for the inhibition at 10 µM in test [1] and in test [2] were 91% and 41%, respectively.

As for `Cc1cc(N2CCC(N(C)C(=O)c3ccc4c(c3)[C@H](NC(=O)c3ccccc3Cl)CC4)CC2)nc(C(C)C)n1` [Example H-139, (3R)-3-[(2-Chloro-benzoyl)amino]-N-[1-(2-isopropyl-6-methyl-pyrimidin-4-yl)-piperidin-4-yl]-N-methyl-2,3-dihydro-1H-indene-5-carboxylic acid amide], the inhibition at 10 µM was found to be 100% in test [1] and 97% in test [2].

Turning to `CN(C(=O)c1ccc2c(c1)[C@H](NC(=O)c1ccccc1Cl)CC2)C1CCN(CC(=O)N2CCCC2)CC1` [Example H-140, (3R)-3-[(2-Chloro-benzoyl)amino]-N-methyl-N-[1-(2-oxo-2-pyrrolidin-1-yl-ethyl)-piperidin-4-yl]-2,3-dihydro-1H-indene-5-carboxylic acid amide], the inhibition at 10 µM in test [1] was determined as 47%; in test [2], 49%.

Regarding `Cc1cc(N2CCC(N(C)C(=O)c3ccc4c(c3)[C@H](NC(=O)c3ccccc3Cl)CC4)CC2)ncn1` [Example H-141, (3R)-3-[(2-Chloro-benzoyl)amino]-N-methyl-N-[1-(6-methyl-pyrimidin-4-yl)-piperidin-4-yl]-2,3-dihydro-1H-indene-5-carboxylic acid amide], the inhibition at 10 µM was found to be 99% in test [1] and 105% in test [2].

Regarding `Cc1cc(N2CCC(N(C)C(=O)c3cc4c(cc3F)[C@H](N3Cc5cccc(Cl)c5C3=O)CC4)CC2)nc(C)n1` [Example H-142, (1R)-1-(4-Chloro-3-oxo-1,2-dihydro-isoindol-2-yl)-N-[1-(2,6-dimethyl-pyrimidin-4-yl)-piperidin-4-yl]-6-fluoro-N-methyl-2,3-dihydro-1H-indene-5-carboxylic acid amide], the inhibition at 10 µM in test [1] amounted to 99%; in test [2], 98%.

Consider `Cc1cc(N2CCC(N(C)C(=O)c3cc4c(cc3F)[C@H](NC(=O)c3cc(C)on3)CC4)CC2)nc(C)n1` [Example H-143, N-[(1R)-5-[[1-(2,6-Dimethyl-pyrimidin-4-yl)-piperidin-4-yl]-methyl-carbamoyl]-6-fluoro-2,3-dihydro-1H-inden-1-yl]-5-methyl-isoxazole-3-carboxylic acid amide], for which the inhibition at 10 µM in test [1] is 98%; in test [2] it was 31%.

For the molecule `Cc1cc(N2CCC(N(C)C(=O)c3ccc4c(c3)[C@H](N(C(=O)c3ccccc3Cl)C(C)C)CC4)CC2)nc(C)n1` [Example H-144, (3R)-3-[(2-Chloro-benzoyl)-isopropyl-amino]-N-[1-(2,6-dimethyl-pyrimidin-4-yl)-piperidin-4-yl]-N-methyl-2,3-dihydro-1H-indene-5-carboxylic acid amide], the inhibition at 10 µM in test [1] was found to be 91%; in test [2] it was 77%.

In the case of `CCN(C(=O)c1ccccc1Cl)[C@@H]1CCc2ccc(C(=O)N(C)C3CCN(c4cc(C)nc(C)n4)CC3)cc21` [Example H-145, (3R)-3-[(2-Chloro-benzoyl)-ethyl-amino]-N-[1-(2,6-dimethyl-pyrimidin-4-yl)-piperidin-4-yl]-N-methyl-2,3-dihydro-1H-indene-5-carboxylic acid amide], the inhibition at 10 µM in test [1] was found to be 100%; in test [2], 106%.

As for `CN(C(=O)c1ccc2c(c1)[C@H](NC(=O)c1ccccc1Cl)CC2)C1CN(c2ccncc2)C1` [Example H-146, (3R)-3-[(2-Chloro-benzoyl)amino]-N-methyl-N-(1-pyridin-4-yl-azetidin-3-yl)-2,3-dihydro-1H-indene-5-carboxylic acid amide], the inhibition at 10 µM was -1% in test [1] and 107% in test [2].

For `CN(C(=O)c1ccc2c(c1)[C@H](NC(=O)c1ccccc1Cl)CC2)C1CCN(c2ccncn2)CC1` [Example H-147, (3R)-3-[(2-Chloro-benzoyl)amino]-N-methyl-N-(1-pyrimidin-4-yl-piperidin-4-yl)-2,3-dihydro-1H-indene-5-carboxylic acid amide], the inhibition at 10 µM stood at 99% in test [1] and 107% in test [2].

Take `CN(C(=O)c1ccc2c(c1)[C@H](N(C)C(=O)c1ccccc1Cl)CC2)C1CCN(c2ccncn2)CC1` [Example H-148, (3R)-3-[(2-Chloro-benzoyl)-methyl-amino]-N-methyl-N-(1-pyrimidin-4-yl-piperidin-4-yl)-2,3-dihydro-1H-indene-5-carboxylic acid amide]: the inhibition at 10 µM was 89% in test [1] and 99% in test [2].

With `Cc1cc(N2CCC(N(C)C(=O)c3ccc4c(c3)[C@H](N(C)C(=O)c3ccccc3Cl)CC4)CC2)nc(C)n1` [Example H-149, (3R)-3-[(2-Chloro-benzoyl)-methyl-amino]-N-[1-(2,6-dimethyl-pyrimidin-4-yl)-piperidin-4-yl]-N-methyl-2,3-dihydro-1H-indene-5-carboxylic acid amide], the inhibition at 10 µM in test [1] stood at 100%; in test [2], 101%.

For the molecule `CC(C)N(C(=O)c1ccccc1Cl)[C@@H]1CCc2ccc(C(=O)N(C)C3CCN(c4ccncc4)CC3)cc21` [Example H-150, (3R)-3-[(2-Chloro-benzoyl)-isopropyl-amino]-N-methyl-N-(1-pyridin-4-yl-piperidin-4-yl)-2,3-dihydro-1H-indene-5-carboxylic acid amide], the inhibition at 10 µM is 89% in test [1] and 98% in test [2].

On to `Cc1cc(N2CCC(N(C)C(=O)c3cc4c(cc3F)[C@H](NC(=O)c3ccccc3Cl)CC4)CC2)nc(C)n1` [Example H-151, (1R)-1-[(2-Chloro-benzoyl)amino]-N-[1-(2,6-dimethyl-pyrimidin-4-yl)-piperidin-4-yl]-6-fluoro-N-methyl-2,3-dihydro-1H-indene-5-carboxylic acid amide], for which the inhibition at 10 µM in test [1] is 100%; in test [2] it was 96%.

For the molecule `Cc1cc(N2CCC(N(C)C(=O)c3cc4c(cc3F)[C@H](NC(=O)c3ccccc3Cl)CC4)CC2)ncn1` [Example H-152, (1R)-1-[(2-Chloro-benzoyl)amino]-6-fluoro-N-methyl-N-[1-(6-methyl-pyrimidin-4-yl)-piperidin-4-yl]-2,3-dihydro-1H-indene-5-carboxylic acid amide], the inhibition at 10 µM turned out to be 82% in test [1] and 93% in test [2].

On to `CN(C(=O)c1ccc2c(c1)[C@H](N(C)C(=O)c1ccccc1Cl)CC2)C1CCN(c2ccncc2)CC1` [Example H-153, (3R)-3-[(2-Chloro-benzoyl)-methyl-amino]-N-methyl-N-(1-pyridin-4-yl-piperidin-4-yl)-2,3-dihydro-1H-indene-5-carboxylic acid amide], for which the inhibition at 10 µM in test [1] stood at 100%; in test [2] it was 101%.
